The text below walks through data of patent US20190159450A1, “PYRIDINE-BASED COMPOUND INCLUDING ISOXAZOLINE RING AND USE THEREOF AS HERBICIDE” (MOGHU RESEARCH CENTER LTD., priority 2016, published 2019).

What all share (assay type): in vivo
The test system of series [1] is Abutilon theophrasti Medicus. In words: Herbicidal activity test, pre-weeds emergence treatment. The note with it: assessed 2 to 3 weeks after spraying, scale 0-10 (0: no effect, 10: complete death). In a few lines: (§1)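 Pre-em, 1 d post-sowing; 200 g/ha; 1000 L/ha; acetone + 0.1% Tween 20 (1:1). Soil sandy loam:mixed 1:1. GH 25–30/15–25 °C day/night. Scored 0–10 at 2–3 wk.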

Series [2] deals with Xanthium strumarium. The description is as above. The conditions noted are these: assessed 2 to 3 weeks after spraying, scale 0-10 (0: no effect, 10: complete death). The method, boiled down: as §1
Series [3] deals with Quamoclit pennata. Described as above. The note with it: assessed 2 to 3 weeks after spraying, scale 0-10 (0: no effect, 10: complete death). In a few lines: as §1
The test system of series [4] is Aeschynomene indica. The description is as above. The conditions noted are these: assessed 2 to 3 weeks after spraying, scale 0-10 (0: no effect, 10: complete death). In a few lines:
as §1

The subject of series [5] is rice. In words: Herbicidal activity test, post-weeds emergence treatment (crop damage). The conditions noted are these: assessed after 2 to 3 weeks, 0: no effect, 10: complete death. In a few lines:
(§2)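 Weeds and crops grown in sandy loam/mixed soil pots to about third-leaf stage (~2 weeks), then track-sprayed at 1000 L/ha with compound in acetone/0.1% Tween 20; dose 200 g/ha on crops, 50 g/ha on weeds. Greenhouse 25-30 °C day, 15-25 °C night; injury scored 0-10 (10 = complete death) after 2-3 weeks.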

The test system of series [6] is maize. The description is as above. The conditions noted are these: assessed after 2 to 3 weeks, 0: no effect, 10: complete death. In a few lines: as §2
Series [7] concerns wheat. The series is described as above. The note with it: assessed after 2 to 3 weeks, 0: no effect, 10: complete death. The method, boiled down:
as §2

Series [8] has as its system Abutilon theophrasti Medicus. In words: Herbicidal activity test, post-weeds emergence treatment. The note with it: assessed after 2 to 3 weeks, 0: no effect, 10: complete death. In a few lines: (§3)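 Crops and weeds were grown in 1:1 sandy loam/mixed soil to roughly third-leaf stage (about 2 weeks), then track-sprayed at 1000 L/ha with compound in acetone plus an equal volume of 0.1% Tween 20 at 200 g/ha (one weed test used 50 g/ha). Injury was scored 0–10 after 2–3 weeks.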

For series [9], the system named is Xanthium strumarium. The description is as above. The conditions noted are these: assessed after 2 to 3 weeks, 0: no effect, 10: complete death. The method, boiled down:
as §3

Series [10] has as its system Quamoclit pennata. The description is as above. The note with it: assessed after 2 to 3 weeks, 0: no effect, 10: complete death. The method, boiled down:
as §3

In series [11] the test system is Aeschynomene indica. Described as above. The conditions noted are these: assessed after 2 to 3 weeks, 0: no effect, 10: complete death. The method, boiled down: as §3
Series [12] concerns rice. In words: Herbicidal activity test, pre-weeds emergence treatment (crop damage). The conditions noted are these: assessed 2 to 3 weeks after spraying, scale 0-10 (0: no effect, 10: complete death). In a few lines: as §1
Series [13] relates to maize. The description is as above. The note with it: assessed 2 to 3 weeks after spraying, scale 0-10 (0: no effect, 10: complete death). In a few lines:
as §1

Series [14] has as its system wheat. The description is as above. The conditions noted are these: assessed 2 to 3 weeks after spraying, scale 0-10 (0: no effect, 10: complete death). The method, boiled down:
as §1

[15] abbreviates: spray amount 200 g/ha for crops, Table 6.
The mark [16] stands for this setting: spray amount 50 g/ha for weeds, Table 6.

Regarding `COC(=O)c1nc(C2CC(Br)=NO2)cc(NC(C)=O)c1Cl` (stereo not shown) [Compound 3, methyl 4-acetamido-3-chloro-6-(3-bromo-4,5-dihydroisoxazol-5-yl)picolinate], the “PRE ABUTH (Abutilon theophrasti Medicus), efficacy score” value in series [1] (Table 3, 200 g/ha) is on record as 10. Further, in the series on Xanthium strumarium [2] (Table 3, 200 g/ha), the “PRE XANST (Xanthium strumarium), efficacy score” value amounted to 8. Moreover, the “PRE IPOAN (Quamoclit pennata), efficacy score” value in the series with Quamoclit pennata [3] (Table 3, 200 g/ha) is given as 8. The “PRE AESIN (Aeschynomene indica), efficacy score” value in the series on Aeschynomene indica [4] (Table 3, 200 g/ha) is reported as 10. The “ORYSA (rice) damage, scale of 0-10” value in the series with rice [5] (spray amount 200 g/ha, Table 5) came to 0. Moreover, in the series on maize [6] (spray amount 200 g/ha, Table 5), the “ZEAMX (maize) damage, scale of 0-10” value stood at 0. In addition, the “TRZAW (wheat) damage, scale of 0-10” value with wheat [7] (spray amount 200 g/ha, Table 5) was determined as 0. The “ABUTH (Abutilon theophrasti Medicus) herbicidal efficacy, scale of 0-10” value in series [8] (spray amount 200 g/ha, Table 5) amounted to 3. Further, the “XANST (Xanthium strumarium) herbicidal efficacy, scale of 0-10” value in the series with Xanthium strumarium [9] (spray amount 200 g/ha, Table 5) is on record as 10. Further, the “IPOAN (Quamoclit pennata) herbicidal efficacy, scale of 0-10” value with Quamoclit pennata [10] (spray amount 200 g/ha, Table 5) is reported as 6. Further, in the series with Aeschynomene indica [11] (spray amount 200 g/ha, Table 5), the “AESIN (Aeschynomene indica) herbicidal efficacy, scale of 0-10” value worked out at 10. Further, the “PRE ORYSA (rice), damage score” value in the series on rice [12] (Table 3, 200 g/ha) is on record as 0. For the same compound, the “PRE ZEAMX (maize), damage score” value with maize [13] (Table 3, 200 g/ha) was found to be 0. For the same compound, the “PRE TRZAW (wheat), damage score” value with wheat [14] (Table 3, 200 g/ha) came to 0.

Regarding `Nc1cc(C2CC(Cl)=NO2)nc(C(=O)Oc2ccccc2)c1Cl` (stereo not shown) [Compound 94, phenyl 4-amino-3-chloro-6-(3-chloro-4,5-dihydroisoxazol-5-yl)picolinate], the “PRE ABUTH (Abutilon theophrasti Medicus), efficacy score” value in [1] (Table 4, 200 g/ha) is given as 10. Moreover, the “PRE XANST (Xanthium strumarium), efficacy score” value in the series with Xanthium strumarium [2] (Table 4, 200 g/ha) was 10. Further, the “PRE IPOAN (Quamoclit pennata), efficacy score” value with Quamoclit pennata [3] (Table 4, 200 g/ha) is 10. The “PRE AESIN (Aeschynomene indica), efficacy score” value with Aeschynomene indica [4] (Table 4, 200 g/ha) was 10. The “ORYSA (rice) damage, scale of 0-10” value with rice [5] (setting [15]) was 3. Besides, the “ZEAMX (maize) damage, scale of 0-10” value in the series with maize [6] (setting [15]) came out at 0. The “TRZAW (wheat) damage, scale of 0-10” value in the series on wheat [7] (setting [15]) is 0. Moreover, in series [8] (setting [16]), the “ABUTH (Abutilon theophrasti Medicus) herbicidal efficacy, scale of 0-10” value is on record as 10. For the same compound, in the series with Xanthium strumarium [9] (setting [16]), the “XANST (Xanthium strumarium) herbicidal efficacy, scale of 0-10” value came out at 10. For the same compound, in the series with Quamoclit pennata [10] (setting [16]), the “IPOAN (Quamoclit pennata) herbicidal efficacy, scale of 0-10” value worked out at 8. Besides, the “AESIN (Aeschynomene indica) herbicidal efficacy, scale of 0-10” value with Aeschynomene indica [11] (setting [16]) came to 10. Moreover, the “PRE ORYSA (rice), damage score” value in the series with rice [12] (Table 4, 200 g/ha) was 7. Moreover, the “PRE ZEAMX (maize), damage score” value with maize [13] (Table 4, 200 g/ha) came to 2. Also, the “PRE TRZAW (wheat), damage score” value in the series on wheat [14] (Table 4, 200 g/ha) was 0.
